Source: patent US10517889B2, “Modulators of SMAD7 expression” (Ionis Pharmaceuticals, Inc., priority 2017, dated 2019)
Where “and” joins values, the source holds several entries; their conditions need not be identical. Equal entries are not always repeated. Strand notation (5' to 3'): a small letter for the sugar, then the base; units joined by * are phosphorothioate-linked, units joined directly phosphodiester-linked; [ ] holds rarer units or linkages, { } end groups; capitals alone tell only the bases. k = constrained ethyl (cEt); [5mC] = 5-methylcytosine; d = 2'-deoxy (DNA)

How the values were obtained:
Assay type in all cases: cell-based
human SMAD7 mRNA [1] = assay: Antisense inhibition of human SMAD7 mRNA expression in Hep3B cells by 3-10-3 cEt gapmers, 10,000 nM, electroporation (Example 2); details: approximately 24 hours, primer probe set RTS5062, relative to untreated control cells; for % Inhibition: SMAD7 mRNA, Hep3B cells, 10,000 nM antisense oligonucleotide, electroporation
Procedure, shortened: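 Hep3B cells (20,000/well) were electroporated with 10,000 nM 3-10-3 cEt gapmer (16-mer, phosphorothioate, 5-methylcytosines) and harvested after about 24 h. SMAD7 mRNA quantified by RT-qPCR with primer probe set RTS5062, normalized to total RNA by RiboGreen; percent inhibition relative to untreated cells.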

human SMAD7 mRNA [2] = assay: Dose-dependent inhibition of human SMAD7 mRNA expression in Hep3B cells, comparison with ION 28453 (Example 4); details: electroporation, approximately 16 hours; for IC50: SMAD7 mRNA
Description: Cells were plated at a density of 20,000 cells per well and transfected using electroporation with 0.25 μM, 0.74 μM, 2.22 μM, 6.67 μM, or 20.00 μM concentrations of antisense oligonucleotide, as specified in the Tables below. After a treatment period of approximately 16 hours, RNA was isolated from the cells and SMAD7 mRNA levels were measured by quantitative real-time PCR. Primer probe set RTS5062 was used to measure human SMAD7 mRNA levels. SMAD7 mRNA levels were adjusted according to total RNA content, as measured by RIBOGREEN®. Results are presented as percent inhibition of SMAD7 mRNa expression, relative to untreated control cells.
The half maximal inhibitory concentration (IC50) of each oligonucleotide is also presented. […] Several newly designed antisense oligonucleotides had greater potency than the previously disclosed lead compound, ION 28453.

human SMAD7 mRNA [3] = assay: Dose-dependent inhibition of human SMAD7 mRNA expression in Hep3B cells (Example 3, Study 1 and 2); details: electroporation; for % inhibition of SMAD7 mRNA expression: approximately 16 hours; for IC50: Study 2 (740-20000 nM)
Procedure, shortened: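 Hep3B cells, 20,000 per well, electroporated with antisense oligonucleotide at 0.31, 1.25, 5.00 or 20.00 μM (first series) or 0.74, 2.22, 6.67 or 20.00 μM (second series). After ~16 h, SMAD7 mRNA measured by RT-qPCR (RTS5062), normalised to RIBOGREEN total RNA. Percent inhibition vs untreated cells; IC50 derived.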

[4] = 740 nM, Study 2, relative to untreated control cells

Row | Substance | % Inhibition (human SMAD7 mRNA [1]) [%] | % inhibition of SMAD7 mRNA expression (human SMAD7 mRNA [2]; 0.25 μM) [%] | % inhibition of SMAD7 mRNA expression (human SMAD7 mRNA [2]; 0.74 μM) [%] | % inhibition of SMAD7 mRNA expression (human SMAD7 mRNA [2]; 2.22 μM) | % inhibition of SMAD7 mRNA expression (human SMAD7 mRNA [2]; 6.67 μM) | % inhibition of SMAD7 mRNA expression (human SMAD7 mRNA [2]; 20.00 μM) [%] | IC50 (human SMAD7 mRNA [2]) | % inhibition of SMAD7 mRNA expression (human SMAD7 mRNA [3]; [4]) [%] | % inhibition of SMAD7 mRNA expression (human SMAD7 mRNA [3]; 2220 nM, Study 2) [%] | % inhibition of SMAD7 mRNA expression (human SMAD7 mRNA [3]; 6670.0 nM, Study 2) [%] | % inhibition of SMAD7 mRNA expression (human SMAD7 mRNA [3]; 20000.0 nM, Study 2) [%] | IC50 (human SMAD7 mRNA [3]) [µM] | % inhibition of SMAD7 mRNA expression (human SMAD7 mRNA [1]; Hep3B cells, electroporation with 10,000 nM antisense oligonucleotide) [%]
1 | 800821 (antisense kG*k[5mC]*kT*dA*dA*dA*dT*dT*dT*d[5mC]*d[5mC]*dA*dA*kT*kG*kA) [compound 800821] | 56 | 14 | 30 | 35% | 58% | 79 | 4 µM | – | – | – | – | – | –
2 | 801040 (antisense kG*kT*k[5mC]*dA*dT*dG*dA*dA*dA*dG*dA*dT*dT*k[5mC]*kT*kT) [compound 801040] | 72 | 31 | 44 | 67% | 63% | 91 | 1 µM | 52 | 55 | 60 | 95 | 1 | –
3 | 801051 (antisense kG*kT*kG*dT*dT*d[5mC]*dA*dA*d[5mC]*dA*dA*dT*dG*k[5mC]*kT*kT) [compound 801051] | 68 | 0 | 10 | 34% | 62% | 83 | 4 µM | 52 | 62 | 76 | 88 | 4 | –
4 | 772568 (antisense kA*kG*k[5mC]*d[5mC]*dT*d[5mC]*dT*dT*dG*dA*d[5mC]*dT*dT*k[5mC]*k[5mC]*kG) [compound 772568] | 45 | – | 0 | 22% and 25% | 36% and 47% | 61 | 13 µM and 9 µM | 41 | 62 | 58 | 79 | 1 | 82
